Data on 25 compounds can be found in patent publication US8975265B2, “Substituted imidazo[1,2-a]pyrimidines and —pyridines” (Bayer Intellectual Property GmbH, priority 2010, dated 2015).

One may read the IC50 as the midpoint of a concentration-inhibition curve.

In experiment [1] the target is His-tagged human recombinant kinase full-length Akt1 (Homo sapiens (Human), UniProt P31749). Kind of experiment: Akt1 kinase assay (TR-FRET). Type of experiment: biochemical. To be noted: 10 μM ATP; read-out: Akt1, median IC50. In outline: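 Full-length His-tagged Akt1 (about 0.05 ng/μl final) preincubated 15 min at 22 °C with compound in 50 mM TRIS/HCl pH 7.5, 5 mM MgCl2, 1 mM DTT, 0.02% Triton X-100; biotinylated peptide substrate. Phosphopeptide detected by TR-FRET (Eu-chelate antibody to streptavidin-XL665) after 1 h at 22 °C.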
Sequence of His-tagged human recombinant kinase full-length Akt1 (P31749 whole entry): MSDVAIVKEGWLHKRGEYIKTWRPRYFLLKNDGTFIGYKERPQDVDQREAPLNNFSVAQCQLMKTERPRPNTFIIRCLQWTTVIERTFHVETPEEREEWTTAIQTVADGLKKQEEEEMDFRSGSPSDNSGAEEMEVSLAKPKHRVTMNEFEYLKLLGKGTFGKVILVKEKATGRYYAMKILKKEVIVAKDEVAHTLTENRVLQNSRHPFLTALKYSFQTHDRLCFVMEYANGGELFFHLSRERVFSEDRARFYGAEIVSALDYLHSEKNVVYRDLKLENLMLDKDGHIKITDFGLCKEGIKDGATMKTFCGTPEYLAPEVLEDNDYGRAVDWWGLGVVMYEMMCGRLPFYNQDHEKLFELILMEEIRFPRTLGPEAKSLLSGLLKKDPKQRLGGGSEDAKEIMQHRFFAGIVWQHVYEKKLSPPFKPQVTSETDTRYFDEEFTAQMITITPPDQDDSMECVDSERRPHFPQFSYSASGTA
In general terms: TR-FRET usually uses a lanthanide donor and a delayed reading to cut background.

Experiment [2] has as its system p-AKT1/2/3-S473 in KPL4 breast tumour cell line. The experiment is described as follows: Cellular p-AKT1/2/3-S473 assay. Format: cell-based. To be noted: KPL4 breast tumour cell line, 2 hours treatment; read-out: pAKT-S743 median IC50. In outline:
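KPL4 cells (PIK3CA H1047R, HER2 0/E, hormone independent) were seeded at 60–80% confluency, cultured overnight, then exposed to compound for 2 h at 37 °C. pAKT-S473 and total AKT measured together by MSD Akt Duplex on 20 µg extract; pAKT expressed as % of total AKT, at least duplicate with independent repeats.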

Experiment [3] deals with p-4E-BP1-T70 in KPL4 breast tumour cell line. Kind of experiment: Cellular p-4E-BP1-T70 assay. Type of experiment: cell-based. The conditions noted are these: 2 hours treatment, read-out: P4EBP1-T70 median IC50. The method, then: The molecular mechanism of action was investigated in a set of experiments to assess the inhibition of the PI3K-AKT-mTOR pathway in responsive cell lines such as KPL4 breast tumour cell line (PIK3CAH1047R, HER20/E and hormone independent). The phospho-substrates of PI3K-AKT-mTOR axis were used as the read-outs to reflect pathway inhibition. Cells were seeded at 60-80% confluency per well in 96-well cell culture plates. After overnight incubation at 37° C. 5% CO2, cells were treated with compounds and vehicle at 37° C. for 2 hours. Thereafter, cells were lysed in 150 μl lysis buffer and the levels of phospho-AKT at T308 and S473 and p-4E-BP1 at T70 sites were determined with the corresponding AlphaScreen® SureFire® assay kits (Perkin Elmer: 4E-BP1 Assay Kit Cat # TRG4E2S10K; Akt 1/2/3 p-Ser 473 #TGRA4S500 and Akt 1/2/3 p-Thr 308 #TGRA3S500 as well as IgG detection Kit #6760617M) as described in the manuals. All measurements where at least done in duplicates and confirmed by independent repetition.

In experiment [4] the test system is KPL-4 breast cancer cell line. The experiment is described as follows: Tumor cell proliferation assay (CellTiter-Glo, 72 h), KPL-4. To be noted: KPL4, 72h drug exposure. Type of experiment: cell-based. In short, it runs like this: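 KPL-4 cells were treated with compound for 72 h at 37°C. Viability was measured as ATP by CellTiter-Glo luminescence, with a separate t=0 plate read after overnight attachment. A reference compound was run as standard.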
For orientation: In ATP-based viability assays light output follows the ATP content of the culture.

The test system of another experiment is MCF7. The experiment is described as follows: Tumor cell proliferation assay (CellTiter-Glo, 72 h), MCF7. Type of experiment: cell-based. To be noted: Homo sapiens, 72h drug exposure. The method, then: Compounds were tested in a cell-based assay that measures the capacity of the compounds to inhibit tumour cell proliferation following a 72h drug exposure. Cell viability is determined using CellTiter-Glow® (CTG, Promega, cat# G7571/2/3). The CellTiter-Glo® Luminescent Cell Viability Assay is a homogeneous method to determine the number of viable cells in culture. Detection is based on using the luciferase reaction to measure the amount of ATP from viable cells. The amount of ATP in cells correlates with cell viability. Within minutes after a loss of membrane integrity, cells lose the ability to synthesize ATP, and endogenous ATPases destroy any remaining ATP; thus the levels of ATP fall precipitously.
Cells were plated at 3000-5000 cells/well (depending on the cell lines) in 90 μL growth medium on MTPs (Corning; #3603, black plate, clear flat bottom). For each cell line assayed, cells were plated onto a separate plate for determination of […] at t=0 hour and t=72 hour time points. Following overnight incubation at 37° C., chemiluminescence values for the t=0 samples were determined after adding 10 μl medium and 100 μl CTG solution according to manufacture protocol. Plates for the t=72 hour time points were treated with compounds diluted into growth medium at ten times final concentration added in 10 μL to the cell culture plate. Cells were then incubated for 72 hours at 37° C. Chemiluminescence values for the t=72 hour samples were determined. […] Experiments were controlled using a reference compound as standard.

Regarding `NC1(c2ccc(-c3nc4cc(F)ccn4c3-c3ccccc3)cc2)CCC1` [Example 2-67], the IC50 in experiment [1] was determined as 64 nM; in experiment [2] it was 195 nM; in experiment [3], 2000 nM; in experiment [4] it was 1700 nM; in the experiment with MCF7 it was 1300 nM.

On to `NC1(c2ccc(-c3nc4c(Br)cc(Cl)cn4c3-c3ccccc3)cc2)CCC1` [Example 2-85], for which the IC50 in experiment [1] was 5 nM; in experiment [2], 161 nM; in experiment [3] it was 1800 nM; in experiment [4], 1900 nM; in the experiment with MCF7 it was 1400 nM.

As to `Cc1c(Cl)cn2c(-c3ccccc3)c(-c3ccc(C4(N)CCC4)cc3)nc2c1-c1ccc(F)cc1` [Example 2-87], the IC50 in experiment [2] worked out at 7530 nM; in experiment [3], 10000 nM; in experiment [4] it was 3700 nM; in the experiment with MCF7, 2100 nM.

Regarding `Cc1c(Cl)cn2c(-c3ccccc3)c(-c3ccc(C4(N)CCC4)cc3)nc2c1-c1ccn[nH]1` [Example 2-88], the IC50 in experiment [1] is 187 nM; in experiment [2], 2570 nM; in experiment [3], 8520 nM; in experiment [4], 2500 nM; in the experiment on MCF7, 2100 nM.

For `Cc1c(-c2ccn[nH]2)cn2c(-c3ccccc3)c(-c3ccc(C4(N)CCC4)cc3)nc2c1C` [Example 2-89], the IC50 was found to be 330 nM in experiment [1]; 380 nM in experiment [2]; 1400 nM in experiment [3]; 1900 nM in experiment [4]; 1700 nM with MCF7.

`COc1cncc(-c2cc(C)cn3c(-c4ccccc4)c(-c4ccc(C5(N)CCC5)cc4)nc23)c1` [Example 2-91]: the IC50 in experiment [2] amounted to 678 nM; in experiment [3], 1610 nM; in experiment [4] it was 2000 nM; in the experiment with MCF7, 1800 nM.

As to `NC(=O)c1cc(Br)cn2c(-c3ccccc3)c(-c3ccc(C4(N)CCC4)cc3)nc12` [Example 2-94], the IC50 was determined as 58 nM in experiment [2], 292 nM in experiment [3], 1800 nM in experiment [4] and 1700 nM in the experiment with MCF7.

Consider `NC(=O)c1cc(Br)c2nc(-c3ccc(C4(N)CCC4)cc3)c(-c3ccccc3)n2c1` [Example 2-95], for which the IC50 in experiment [1] was determined as 11 nM; in experiment [2], 3 nM; in experiment [3], 13 nM; in experiment [4] it was 400 nM; in the experiment with MCF7, 400 nM.

Turning to `NC(=O)c1cc(-c2cn[nH]c2)cn2c(-c3ccccc3)c(-c3ccc(C4(N)CCC4)cc3)nc12` [Example 2-97], the IC50 in experiment [1] was 67 nM; in experiment [2] it was 377 nM; in experiment [3] it was 1590 nM; in experiment [4], 1900 nM; in the experiment on MCF7, 1800 nM.

On to `NC(=O)c1cc(-c2ccn[nH]2)cn2c(-c3ccccc3)c(-c3ccc(C4(N)CCC4)cc3)nc12` [Example 2-98], for which the IC50 is 69 nM in experiment [1]; 225 nM in experiment [2]; 1120 nM in experiment [3]; 1900 nM in experiment [4]; 1900 nM in the experiment with MCF7.

As for `NC(=O)c1cc(-c2cccnc2)cn2c(-c3ccccc3)c(-c3ccc(C4(N)CCC4)cc3)nc12` [Example 2-99], the IC50 in experiment [1] turned out to be 177 nM; in experiment [2], 93 nM; in experiment [3] it was 90 nM; in experiment [4], 1800 nM; in the experiment with MCF7, 1800 nM.

For the compound `Cc1c(C(N)=O)cn2c(-c3ccccc3)c(-c3ccc(C4(N)CCC4)cc3)nc2c1C` [Example 2-100], the IC50 in experiment [1] amounted to 201 nM; in experiment [2] it was 67 nM; in experiment [3] it was 54 nM; in experiment [4], 900 nM; in the experiment with MCF7, 1200 nM.

Turning to `Cc1cc(C(N)=O)cn2c(-c3ccccc3)c(-c3ccc(C4(N)CCC4)cc3)nc12` [Example 2-101], the IC50 is 14 nM in experiment [1]; 19 nM in experiment [2]; 89 nM in experiment [3]; 300 nM in experiment [4]; 300 nM in the experiment on MCF7.

Take `Cc1cc(-c2cn[nH]c2)cn2c(-c3ccccc3)c(-c3ccc(C4(N)CCC4)cc3)nc12` [Example 2-102]: the concentration for half-maximal inhibition (IC50) in experiment [1] was determined as 106 nM; in experiment [2] it was 33 nM; in experiment [3] it was 158 nM; in experiment [4], 1900 nM; with MCF7, 1900 nM.

In the case of `Cc1cc(-c2ccn[nH]2)cn2c(-c3ccccc3)c(-c3ccc(C4(N)CCC4)cc3)nc12` [Example 2-103], the IC50 in experiment [1] amounted to 99 nM; in experiment [2], 230 nM; in experiment [3], 719 nM; in experiment [4], 200 nM; in the experiment with MCF7, 200 nM.

As to `Cc1cc(-c2cccnc2)cn2c(-c3ccccc3)c(-c3ccc(C4(N)CCC4)cc3)nc12` [Example 2-104], the IC50 in experiment [1] was found to be 175 nM; in experiment [2] it was 112 nM; in experiment [3], 348 nM; in experiment [4], 300 nM; in the experiment on MCF7 it was 200 nM.

Turning to `Cc1cc(-c2cc(C)c3nc(-c4ccc(C5(N)CCC5)cc4)c(-c4ccccc4)n3c2)[nH]n1` [Example 2-105], the IC50 in experiment [1] was found to be 217 nM; in experiment [2], 669 nM; in experiment [3], 573 nM; in experiment [4] it was 2200 nM; in the experiment with MCF7, 1800 nM.

For the compound `NC1(c2ccc(-c3nc4ccc(-c5cnc[nH]5)cn4c3-c3ccccc3)cc2)CCC1` [Example 2-129], the IC50 in experiment [1] turned out to be 195 nM; in experiment [2], 180 nM; in experiment [3] it was 2180 nM; in experiment [4], 1800 nM; in the experiment on MCF7 it was 300 nM.

Regarding `CCc1cc(OC)c2nc(-c3ccc(C4(N)CCC4)cc3)c(-c3ccccc3)n2c1` [Example 2-147], the IC50 in experiment [1] stood at 148 nM; in experiment [2] it was 248 nM; in experiment [3], 1340 nM; in experiment [4], 1700 nM; in the experiment on MCF7 it was 500 nM.

With `COc1cc(-c2cnc[nH]2)cn2c(-c3ccccc3)c(-c3ccc(C4(N)CCC4)cc3)nc12` [Example 2-148], the IC50 in experiment [1] turned out to be 139 nM; in experiment [2], 397 nM; in experiment [3], 1810 nM; in experiment [4], 1900 nM; with MCF7, 1500 nM.

As for `COc1cc(-c2ncc[nH]2)cn2c(-c3ccccc3)c(-c3ccc(C4(N)CCC4)cc3)nc12` [Example 2-149], the IC50 in experiment [1] worked out at 198 nM; in experiment [2], 576 nM; in experiment [3], 1960 nM; in experiment [4], 2900 nM; with MCF7, 1800 nM.

In the case of `Nc1ccn2c(-c3ccccc3)c(-c3ccc(C4(N)CCC4)cc3)nc2c1` [Example 2-151], the concentration for half-maximal inhibition (IC50) in experiment [1] amounted to 514 nM; in experiment [2] it was 482 nM; in experiment [3] it was 4810 nM; in experiment [4], 1700 nM; in the experiment on MCF7 it was 200 nM.

Consider `Nc1ccc2nc(-c3ccc(C4(N)CCC4)cc3)c(-c3ccccc3)n2c1` [Example 2-155], for which the IC50 in experiment [1] came out at 854 nM; in experiment [2] it was 374 nM; in experiment [3], 2220 nM; in experiment [4] it was 5500 nM; with MCF7, 1700 nM.

`CC(=O)Nc1ccc2nc(-c3ccc(C4(N)CCC4)cc3)c(-c3ccccc3)n2c1` [Example 2-156]: the IC50 in experiment [1] was found to be 62 nM; in experiment [2], 190 nM; in experiment [3] it was 1210 nM; in experiment [4], 900 nM; in the experiment on MCF7 it was 500 nM.

In the case of `CS(=O)(=O)Nc1ccc2nc(-c3ccc(C4(N)CCC4)cc3)c(-c3ccccc3)n2c1` [Example 2-159], the IC50 amounted to 2990 nM in experiment [1]; 907 nM in experiment [2]; 3280 nM in experiment [3]; 4700 nM in experiment [4]; 2800 nM in the experiment with MCF7.
